Experimental data from ChEMBL document CHEMBL4190348, “Synthesis of cytotoxically active derivatives based on alkylated 2,3-seco-triterpenoids” (Eur J Med Chem, 2017).
pIC50: −log10 of the molar value. ≈ marks a conversion by molar mass, not a printed value. Calls of active or inactive are those of the source. No cut-off for these calls is given here.

Key:
[1] = test system: HCT-116; assay: Induction of apoptosis in human HCT116 cells assessed as increase in mitochondrial membrane depolarization at 10 uM incubated for 18 hrs by rhodamine 123 staining based fluorescent inverted microscopy (reference value: 8%); assay type: functional
[2] = test system: HEp-2; assay: Cytotoxicity against human Hep2 cells assessed as reduction in cell viability incubated for 72 hrs by MTT assay; assay type: functional, cell-based; details: HEp-2, 72 h
[3] = test system: HCT-116; assay: Cytotoxicity against human HCT116 cells assessed as reduction in cell viability incubated for 72 hrs by MTT assay; assay type: functional, cell-based; details: HCT-116, 72 h
[4] = Cytotoxicity against human MS cells assessed as reduction in cell viability incubated for 72 hrs by MTT assay; assay type: functional, cell-based
[5] = test system: RD; assay: Cytotoxicity against human TE32 cells assessed as reduction in cell viability incubated for 72 hrs by MTT assay; assay type: functional, cell-based
[6] = test system: A549; assay: Cytotoxicity against human A549 cells assessed as reduction in cell viability incubated for 72 hrs by MTT assay; assay type: functional, cell-based; details: A549, 72 h
[7] = test system: HEK293; assay: Cytotoxicity against HEK293 cells assessed as reduction in cell viability incubated for 72 hrs by MTT assay; assay type: cell-based; details: Homo sapiens, HEK293, 72 h
[8] = Selectivity index, ratio of IC50 for HEK293 cells to IC50 for human HCT116 cells; assay type: toxicity; details: HEK293 cells versus HCT116 cells, read-out: Ratio IC50
[9] = Selectivity index, ratio of IC50 for HEK293 cells to IC50 for human Hep2 cells; assay type: toxicity; details: HEK293 cells versus Hep2 cells, read-out: Ratio IC50
[10] = Selectivity index, ratio of IC50 for HEK293 cells to IC50 for human TE32 cells; assay type: toxicity; details: HEK293 cells versus TE32 cells, read-out: Ratio IC50
[11] = Selectivity index, ratio of IC50 for HEK293 cells to IC50 for human MS cells; assay type: toxicity; details: HEK293 cells versus MS cells, read-out: Ratio IC50
[12] = test system: HCT-116; assay: Induction of apoptosis in human HCT116 cells assessed as viable cells level at 10 uM incubated for 16 hrs by Annexin V-FICT/PI staining based flow cytometry (reference value: 91.36%); assay type: functional
[13] = test system: HCT-116; assay: Induction of apoptosis in human HCT116 cells assessed as early apoptotic cells level at 10 uM incubated for 16 hrs by Annexin V-FICT/PI staining based flow cytometry (reference value: 4.47%); assay type: functional
[14] = test system: HCT-116; assay: Induction of apoptosis in human HCT116 cells assessed as late apoptotic cells level at 10 uM incubated for 16 hrs by Annexin V-FICT/PI staining based flow cytometry (reference value: 2.51%); assay type: functional
[15] = test system: HCT-116; assay: Induction of apoptosis in human HCT116 cells assessed as necrotic cells level at 10 uM incubated for 16 hrs by Annexin V-FICT/PI staining based flow cytometry (reference value: 1.67%); assay type: functional
[16] = test system: HCT-116; assay: Induction of apoptosis in human HCT116 cells assessed as increase in chromatin condensation at 10 uM incubated for 18 hrs by Hoechst 33258 staining based fluorescent inverted microscopy; assay type: functional
[17] = test system: HCT-116; assay: Induction of apoptosis in human HCT116 cells assessed as increase in caspase-8 activity at 10 uM after 12 hrs by fluorimetric assay; assay type: functional, cell-based
[18] = test system: HCT-116; assay: Induction of apoptosis in human HCT116 cells assessed as increase in caspase-3/7 activity at 10 uM after 18 hrs by fluorimetric assay; assay type: functional, cell-based
[19] = test system: HCT-116; assay: Induction of apoptosis in human HCT116 cells assessed as increase in caspase-3/7 activity at 10 uM after 24 hrs by fluorimetric assay; assay type: functional, cell-based
[20] = test system: HCT-116; assay: Induction of apoptosis in human HCT116 cells assessed as increase in cck18 level at 10 uM after 18 hrs by fluorimetric assay; assay type: functional, cell-based
[21] = test system: HCT-116; assay: Cytotoxicity against human HCT116 cells assessed as reduction in cell viability at 10 uM incubated for 12 to 72 hrs by MTT assay; assay type: functional, cell-based; details: TDE = time-dependent effect
[22] = test system: HCT-116; assay: Induction of apoptosis in human HCT116 cells assessed as viable cells level at 2 uM incubated for 16 hrs by Annexin V-FICT/PI staining based flow cytometry (reference value: 91.36%); assay type: functional
[23] = test system: HCT-116; assay: Induction of apoptosis in human HCT116 cells assessed as early apoptotic cells level at 2 uM incubated for 16 hrs by Annexin V-FICT/PI staining based flow cytometry (reference value: 4.47%); assay type: functional
[24] = test system: HCT-116; assay: Induction of apoptosis in human HCT116 cells assessed as late apoptotic cells level at 2 uM incubated for 16 hrs by Annexin V-FICT/PI staining based flow cytometry (reference value: 2.51%); assay type: functional
[25] = test system: HCT-116; assay: Induction of apoptosis in human HCT116 cells assessed as necrotic cells level at 2 uM incubated for 16 hrs by Annexin V-FICT/PI staining based flow cytometry (reference value: 1.67%); assay type: functional
[26] = test system: HCT-116; assay: Induction of apoptosis in human HCT116 cells assessed as increase in mitochondrial membrane depolarization at 2 uM incubated for 18 hrs by rhodamine 123 staining based fluorescent inverted microscopy (reference value: 8%); assay type: functional
[27] = test system: Human immunodeficiency virus 1; assay: Antiviral activity against HIV1; assay type: functional, organism-based
[28] = test system: Human alphaherpesvirus 1; assay: Antiviral activity against HSV1; assay type: functional, organism-based
[29] = test system: HL-60; assay: Growth inhibition of human HL60 cells; assay type: functional

C=C(C=O)[C@@H]1CC[C@]2(C(=O)OC)CC[C@]3(C)[C@H](CC[C@@H]4[C@@](C)(CC#N)[C@H](C(C)(C)C(=O)CBr)CC[C@]43C)[C@@H]12
Activity [1]: 11.6% | pIC50 [2]: 5.28 | pIC50 [3]: 4.99 | pIC50 [4]: 5.47 | pIC50 [5]: 5.42 | pIC50 [6]: 4.59 | pIC50 [7]: 4.03 | selectivity ratio [8]: 8.9 | selectivity ratio [9]: 17.4 | selectivity ratio [10]: 24.3 | selectivity ratio [11]: 27.2 | Activity [12]: 59.86% | Activity [13]: 25.61% | Activity [14]: 10.07% | Activity [15]: 4.46% | Activity [16]: 28.3% | Activity [17]: Active | Activity [18]: Active | Activity [19]: Active | Activity [20]: Active | Activity [21]: Tde

C=C(C=O)[C@@H]1CC[C@]2(C(=O)OC)CC[C@]3(C)[C@H](CC[C@@H]4[C@@](C)(CC#N)[C@H](C(C)(C)C(=O)C(Br)Br)CC[C@]43C)[C@@H]12
pIC50 [2]: < 4.00 | pIC50 [3]: 4.58 | pIC50 [4]: 5.20 | pIC50 [5]: 5.16 | pIC50 [6]: < 4.00

CC1(C)CC[C@]23CC[C@]4(C)[C@H](CC[C@@H]5[C@@](C)(CC#N)[C@H](C(C)(C)C(=O)CBr)CC[C@]54C)[C@H]2[C@H]1OC3
pIC50 [2]: < 4.00 | pIC50 [3]: < 4.00 | pIC50 [4]: < 4.00 | pIC50 [5]: 4.28 | pIC50 [6]: < 4.00

C[C@@H](O)C(C)(C)[C@@H]1CC[C@]2(C)[C@H](CC[C@@H]3[C@H]4[C@H]5OC[C@@]4(CCC5(C)C)CC[C@]32C)[C@@]1(C)CC#N
pIC50 [2]: < 4.00 | pIC50 [3]: < 4.00 | pIC50 [4]: 4.08 | pIC50 [5]: 4.02 | pIC50 [6]: < 3.70

CC[C@@]1(O)C(=O)OCc2c1cc1n(c2=O)Cc2cc3ccccc3nc2-1 [CAMPTOTHECIN]
Activity [22]: 80.88% | pIC50 [2]: 5.52 | pIC50 [3]: 5.73 | pIC50 [4]: 5.74 | Activity [23]: 12.44% | Activity [24]: 5.07% | Activity [25]: 1.6% | Activity [26]: -30%

CC1(C)CC[C@]23CC[C@]4(C)[C@H](CC[C@@H]5[C@@]6(C)C/C(=N\O)[C@](C)(O)C(C)(C)[C@@H]6CC[C@]54C)[C@H]2[C@H]1OC3
pIC50 [2]: 4.07 | pIC50 [3]: < 4.00 | pIC50 [4]: 4.06 | pIC50 [5]: 4.47 | pIC50 [6]: < 4.00

C=C(C)[C@@H]1CC[C@]2(C(=O)OC)CC[C@]3(C)[C@H](CC[C@@H]4[C@@](C)(CC#N)[C@H](C(C)(C)[C@@H](C)OC(C)=O)CC[C@]43C)[C@@H]12
pIC50 [2]: < 4.00 | pIC50 [3]: < 4.00 | pIC50 [4]: 4.01 | pIC50 [5]: 4.37 | pIC50 [6]: 4.03

CC1(C)CC[C@]23CC[C@]4(C)[C@H](CC[C@@H]5[C@@](C)(CC#N)[C@H](C(C)(C)C(=O)C(Br)Br)CC[C@]54C)[C@H]2[C@H]1OC3
pIC50 [2]: < 4.00 | pIC50 [3]: < 4.00 | pIC50 [4]: < 4.00 | pIC50 [5]: < 4.00 | pIC50 [6]: < 4.00

C=C(C)[C@@H]1CC[C@]2(C(=O)O)CC[C@]3(C)[C@H](CC[C@@H]4[C@@]5(C)[C@H](C(=O)O)[C@H](O)C(C)(C)[C@@H]5CC[C@]43C)[C@@H]12 [EPICEANOTHIC ACID]
EC50 [27]: < 0.064 mg/L

C=C(C=O)[C@@H]1CC[C@]2(C(=O)OC)CC[C@]3(C)[C@H](CC[C@@H]4[C@@]5(C)C(C#N)=C(C)C(C)(C)[C@@H]5CC[C@]43C)[C@@H]12
pIC50 [2]: 4.76 | pIC50 [3]: 5.15 | pIC50 [4]: 5.07 | pIC50 [5]: 4.66 | pIC50 [6]: 4.44

CC(=O)C(C)(C)[C@@H]1CC[C@]2(C)[C@H](CC[C@@H]3[C@H]4[C@H]5OC[C@@]4(CCC5(C)C)CC[C@]32C)[C@@]1(C)CC#N
EC50 [27]: 7.2 mg/L (≈ 15.4 µM) | EC50 [28]: 21.1 mg/L (≈ 45.1 µM) | pIC50 [2]: < 4.00 | pIC50 [3]: < 4.00 | pIC50 [4]: < 4.00 | pIC50 [5]: < 4.00 | pIC50 [6]: < 4.00

C=C(C)[C@@H]1CC[C@]2(C(=O)OC)CC[C@]3(C)[C@H](CC[C@@H]4[C@@](C)(CC#N)[C@H](C(C)(C)[C@@H](C)O)CC[C@]43C)[C@@H]12
pIC50 [2]: 4.36 | pIC50 [3]: 4.50 | pIC50 [4]: 4.82 | pIC50 [5]: 4.69 | pIC50 [6]: 4.72

CC1(C)CC[C@]23CC[C@]4(C)[C@H](CC[C@@H]5[C@@]6(C)C(C#N)=C(CO)C(C)(C)[C@@H]6CC[C@]54C)[C@H]2[C@H]1OC3
pIC50 [2]: < 4.00 | pIC50 [3]: < 4.00 | pIC50 [4]: < 4.00 | pIC50 [5]: < 4.00 | pIC50 [6]: 4.24

COC(=O)[C@]12CC[C@@H](C(C)=O)[C@@H]1[C@H]1CC[C@@H]3[C@@]4(C)C(C#N)=C(C)C(C)(C)[C@@H]4CC[C@@]3(C)[C@]1(C)CC2
pIC50 [2]: < 4.00 | pIC50 [3]: < 4.00 | pIC50 [4]: < 4.00 | pIC50 [5]: < 4.00 | pIC50 [6]: < 4.00

C=C(C)[C@@H]1CC[C@]2(C(=O)OC)CC[C@]3(C)[C@H](CC[C@@H]4[C@@]5(C)C/C(=N\O)[C@](C)(O)C(C)(C)[C@@H]5CC[C@]43C)[C@@H]12
pIC50 [2]: 4.15 | pIC50 [3]: < 4.00 | pIC50 [4]: 4.63 | pIC50 [5]: 4.54 | pIC50 [6]: 4.26

C=C(C=O)[C@@H]1CC[C@]2(C(=O)OC)CC[C@]3(C)[C@H](CC[C@@H]4[C@@](C)(CC#N)[C@H](C(C)(C)C(C)=O)CC[C@]43C)[C@@H]12
pIC50 [2]: 4.28 | pIC50 [3]: 5.14 | pIC50 [4]: 5.26 | pIC50 [5]: 5.30 | pIC50 [6]: 4.81 | pIC50 [7]: 5.22

C=C(C)[C@@H]1CC[C@]2(C(=O)OC)CC[C@]3(C)[C@H](CC[C@@H]4[C@@](C)(CC#N)[C@H](C(C)(C)C(C)=O)CC[C@]43C)[C@@H]12
EC50 [27]: 39.9 mg/L (≈ 80.5 µM) | pIC50 [2]: < 4.00 | pIC50 [3]: < 4.00 | pIC50 [4]: < 4.00 | pIC50 [5]: < 4.00 | pIC50 [6]: < 4.00

C=C(C)[C@@H]1CC=C2[C@@H](CC[C@]3(C)[C@@H]([C@H](C)CC(=O)CC(C)C)CC[C@@]23C)[C@@]1(C)CCC(=O)O
GI50 [29]: 6.8 µM

CC(=O)O[C@H](C)C(C)(C)[C@@H]1CC[C@]2(C)[C@H](CC[C@@H]3[C@H]4[C@H]5OC[C@@]4(CCC5(C)C)CC[C@]32C)[C@@]1(C)CC#N
pIC50 [2]: < 4.00 | pIC50 [3]: 4.19 | pIC50 [4]: 4.67 | pIC50 [5]: 4.50 | pIC50 [6]: 4.34

COC(=O)[C@]12CC[C@@H](C(C)=O)[C@@H]1[C@H]1CC[C@@H]3[C@@](C)(CC#N)[C@H](C(C)(C)C(C)=O)CC[C@@]3(C)[C@]1(C)CC2
pIC50 [2]: < 4.00 | pIC50 [3]: < 4.00 | pIC50 [4]: < 4.00 | pIC50 [5]: < 4.00 | pIC50 [6]: < 4.00
